In brackets after ≈: the same amount, converted by molar mass.
Key:
B16F10 tumour = assay: In vivo test, survival of mice with transplanted B16F10 tumour; design: species or system mouse; settings: 0.1 mg/kg, treated daily
Description: Mice are inoculated with 5×10^6 B16F10 tumour cells on day 0. The animals in which tumour cells are transplanted develop solid peritoneal tumours and are then treated daily with test substances or with the vehicle control. In the control group, 50% of the animals usually die between day 14 and 20. The test substances are administered in buffer or an organic solvent system comprising 20% methanol and 20% dimethyl sulphoxide in 0.7% sodium chloride solution.
The therapeutic result arises from the prolonging of the survival time of the treated animals. […] A therapeutic index can be estimated from the tolerance and prolonging of the survival time.

[1] = tested on: bone marrow parent cells of the mouse; assay: CSF-induced proliferation of bone marrow parent cells, in vitro; format: cell-based; settings: recombinant murine GM-CSF, 7 days
Description: Bone marrow cells are flushed out of the femur of mice. 10^5 cells are incubated in McCoy SA medium (0.3% agar) together with recombinant murine GM-CSF (Genzyme; parent cell colony formation) and the substances (10^-4 to 100 μg/ml) at 37° C. and 7% CO2. 7 days later, the colonies ([…]) and clusters (17-50 cells) are counted.

MEXF 989 = assay: Two-layer soft agar culture of human tumour xenografts; format: cell-based; settings: T/C ≤30%
Description: (§1) The in vitro activity of glycoconjugates of quinolone-a was determined on human tumour xenografts in a two-layer soft agar culture system according to Hamburger and Salmon (Science 197: 461-463).
(§2) The solid tumours were initially grown in the athymic naked mouse (NMRI nu/nu), obtained by surgery and comminuted mechanically. Individual cells were then obtained by incubation in an enzyme mixture of collagenase 0.05%, DNAse 0.07% and hyaluronidase 0.1% in RPMI at 37° C. for 30 minutes. The cells were washed 2× and then passed through a sieve of 200 μm and 20 μm mesh width.
(§3) The base layer comprises 0.2 ml of Iscoves's Modified Dulbeccos Medium with 20% foetal calf serum and 0.7% agar. 40,000 to 200,000 cells in 0.2 ml of the same medium and 0.4% agar were applied to this layer in 24 multiwell plates. The cytostatic substances were added in 0.2 ml of medium.
(§4) The cultures were incubated at 37° C. in a 7% CO2 atmosphere for 6 to 15 days. The colonies which had grown were then counted under an inverting microscope, the living colonies being stained with a tetrazolium chloride dyestuff 24 hours before the evaluation.
(§5) The effect of the active compound is expressed in per cent of surviving colonies compared with the colony count of untreated plates (T/C=colony count treated×100/control count untreated).
(§6) A substance is active if the T/C value is ≤30%.
(§7) This value is shown as the IC70 value in μg/ml in Table 8.

OVXF 899 = assay: as above; format: cell-based; settings: T/C ≤30%
Description: as §1, §2, §3, §4, §5, §6, §7

OVXF 1023 = assay: as above; format: cell-based; settings: T/C ≤30%
Description: as §1, §2, §3, §4, §5, §6, §7

SW 480 [2] = assay: as above; format: cell-based; settings: T/C ≤30%
Description: as §1, §2, §3, §4, §5, §6, §7

LXFL 529 = assay: as above; format: cell-based; settings: T/C ≤30%
Description: as §1, §2, §3, §4, §5, §6, §7

LXFS 538 = assay: as above; format: cell-based; settings: T/C ≤30%
Description: as §1, §2, §3, §4, §5, §6, §7

CXF 280 = assay: as above; format: cell-based; settings: T/C ≤30%
Description: as §1, §2, §3, §4, §5, §6, §7

HT 29 [3] = assay: as above; format: cell-based; settings: T/C ≤30%
Description: as §1, §2, §3, §4, §5, §6, §7

bone marrow parent cells = assay: Bone marrow parent cell proliferation after in vivo treatment; design: species or system mouse
Description: Mice are treated subcutaneously with 1, 3, 10 or 30 mg/kg of the compounds. At various times (3, 24, 48, 72 p. inj.) the femurs are removed and the bone marrow cells isolated. 2×10^5 cells are incubated with GM-CSF as described above and, after 7 days, the colonies and clusters are counted.

[4] = Acute toxicity, single administration; format: in vivo, nu/nu naked mice; settings: single administration i.v., aqueous solution
Description: Determination of the Acute Toxicity of Glycoconjugates of Batracyline (Single Administration)
The acute toxicity of the batracyline derivatives was determined on nu/nu naked mice.
The substances administered i.v., as aqueous solutions, and the substances administered i.p., as solutions in dimethyl sulphoxide, were injected once in concentrations of up to 400 mg of substance per kg of mouse.
The individual dose tolerated was calculated from the decrease in the weight of the animals up to 21 days after administration and from the number of animals surviving.

SW-480 = assay: Cleavage kinetics with cells (HPLC); settings: Table 2b; 37° C.
Description: Cleavage Kinetics With Cells
(§9) 2.25 ml of PBS are incubated together with 225 μl of a cell suspension (30 mg/ml) and 25 μl of substrate stock solution (1 mg/ml in 3% dimethyl sulphoxide in PBS) at 37° C. After 1 hour and 24 hours, samples of in each case 1 ml are taken, mixed with 1 ml of ethanol and left to stand at 4° C. for 20 minutes. After centrifugation (5 minutes at 3500 rpm), 100 μl of supernatant are taken for the HPLC analysis.

B 16 F 10 = assay: Growth inhibition test (MTT) for cytotoxic properties; format: cell-based, mouse; settings: Table 1b
Method in brief: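 Cells in RPMI 1640 with 10% FCS pre-cultured 1 day at 37° C, then exposed to test substances in DMSO; growth checked after day 3 and day 6. Read-out by MTT, 5 h incubation, isopropanol solubilization, extinction at 540 nm.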

SW 480 [5] = assay: as above; format: cell-based, human
Method in brief: (§8)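 IC50 values come from an MTT read at 540 nm (5 h at 37 °C, 5 mg/ml MTT stock), taken on day 3 and day 6. Cells (HT 29, SW 480; 50,000 cells/ml in RPMI/10% FCS) were pre-cultured 1 day, then compound in DMSO was added.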

hepatoma = assay: Cleavage kinetics with cells (HPLC); settings: Table 2b; 37° C.
Description: Cleavage Kinetics With Cells
as §9

[6] = Cleavage kinetics with human blood (HPLC); format: in vitro ADME; settings: Table 2b; 37° C.
Description: In Vitro Investigation of the Cleavability of the Glycoconjugates
Cleavage Kinetics With Human Blood

HT 29 [7] = assay: Growth inhibition test (MTT) for cytotoxic properties; format: cell-based, human; settings: Table 1a, glycoconjugates of batracyline
Method in brief: as §8

[8] = Investigation of organ distribution in naked mice carrying SW 480 tumours; format: in vivo, Athymic naked mice (strain NMRI nu/nu); settings: after conjugate 1 i.p. 300 mg/kg
[9] = as above; format: in vivo, Athymic naked mice (strain NMRI nu/nu)
Description: Athymic naked mice (strain NMRI nu/nu) bred in "Drug Development Laboratory, Oncotest GmbH", Prof. H. H. Fiebig, Freiburg, were used for all the experiments. The animals were kept in Macrolon cages under laminar flow conditions. Tissue of the cell line SW 480 which had been grown beforehand in several passages in the naked mice, was used as the tumour material.
Two tumours per animal were implanted subcutaneously in the two flanks of the naked mice 6 to 8 weeks old. The animals were kept for 26 to 27 days until the time of randomization. The average tumour size was then 500 mg, corresponding to a tumour diameter of about 10 mm.
The pharmacokinetics themselves proceeded as follows: the substance to be investigated was injected into the naked mice and the mice were then put back in the cages until samples were taken after 1/2 hour and after 4 hours. The taking of samples itself began with sampling of blood. For this, the mouse was anaesthetized by means of anaesthetic ether (duration 1/2 to one minute). 0.5 hour and 4 hours after injection of the substance, the abdominal cavity was opened and the mouse was exsanguinated under anaesthesia via the Vena cava caudalis in the course of 1 to 2 minutes and then sacrificed by breaking its neck. As a result, central circulatory arrest occurred and organ perfusion was suppressed. The individual organs were then exposed and removed, an operation which took about 5 minutes. Immediately thereafter, the organ samples and then the remainder of the body were weighed and frozen in liquid nitrogen.
The substance "conjugate 1" is administered i.p. in an amount of 300 mg/kg of body weight and the substance "conjugate 2" is administered i.v. into the tail vein in an amount of 100 mg/kg. 5 animals are used per substance and time.
5, 10, 50, 100 and 200 μg of substance, dissolved in ethanol/water (1:1, v/v) were added to 1 g of bovine liver. The samples were then ground in a mortar with 1 g of sea sand and 2.5 ml of cooled ethanol/water (1:1, v/v) and centrifuged at 3500 rpm for 2 minutes. After removal of the supernatant, the residue was again mixed with 2.5 ml of ethanol/water and centrifuged and the supernatants were combined. In each case 100 μl were taken and analyzed by HPLC.
The organs were worked up analogously to A, the entire organs being broken down with 2.5 ml of ethanol/water and extracted.
The amount of blood taken was mixed with 2 ml of ethanol/water (1:1, v/v) and centrifuged for 2 minutes at 3500 rpm, and the supernatant was decanted. 2 ml of ethanol/water (1:1, v/v) were again added to the residue, the mixture was centrifuged and the supernatants were combined. In each case 100 μl of the combined supernatants were analyzed by HPLC. The HPLC conditions used under A were used. [drawing 14]

[10] = Kidney, after conjugate 2 i.v. 100 mg/kg
[11] = Tumour, after conjugate 2 i.v. 100 mg/kg

## N[C@@H]1C=CC[C@@H]2CN(c3c(F)cc4c(=O)c(C(=O)O)cn(C5CC5)c4c3Cl)C[C@@H]21 (racemic) [Quinolone-a, 7-[(3aRS,4RS,7aSR)-4-amino-1,3,3a,4,7,7a-hexahydro-isoindol-2-yl]-8-chloro 1-cyclopropyl-6-fluoro-1,4-dihydro4-oxo-3-quinolinecarboxylic acid, reference compound]
B16F10 tumour
  % survivors Day 0: 100%
  % survivors Day 20: 100%
  % survivors Day 25: 100%
  % survivors Day 30: 60%
  % survivors Day 35: 40%
[1]; Mus musculus, 168 h, read-out: IC50 [μg/ml] CSF-induced proliferation of bone marrow parent cells of the mouse
  IC50: 0.0002 µg/mL
MEXF 989
  IC70 /μg/ml: < 0.3 µg/mL
OVXF 899
  IC70 /μg/ml: 2 µg/mL (≈ 4.79 µM)
OVXF 1023
  IC70 /μg/ml: 0.5 µg/mL (≈ 1.2 µM)
SW 480 [2]
  IC70 /μg/ml: 3 µg/mL (≈ 7.18 µM)
LXFL 529
  IC70 /μg/ml: 3 µg/mL (≈ 7.18 µM)
LXFS 538
  IC70 /μg/ml: < 0.3 µg/mL
CXF 280
  IC70 /μg/ml: 6 µg/mL (≈ 14.4 µM)
HT 29 [3]
  IC70 /μg/ml: 20 µg/mL (≈ 47.9 µM)
Bone marrow parent cells; 3 mg/kg, subcutaneously (FIG. 1)
  suppression of parent cell proliferation in vivo: massive suppression
[4]
  Individual dose tolerated in mg/kg of mouse, i.v.: < 25 mg/kg of mouse

## C[C@@H]1O[C@H](Oc2ccc(NC(=S)N[C@H](C)C(=O)NC3C=CCC4CN(c5c(F)cc6c(=O)c(C(=O)O)cn(C7CC7)c6c5Cl)CC43)cc2)[C@@H](O)[C@H](OCC(=O)[O-])[C@@H]1O.[Na+] (stereo partly drawn) [Example 12.3, N-{N'-[O-(3-O-Carboxymethyl-β-L-fucosyl)-4-hydroxy-phenylamino-thiocarbonyl]-D-alanyl}-quinolone-a, mono-sodium salt]
SW-480
  % cleavage in SW-480 1 hour: 0%
  % cleavage in SW-480 24 hours: 0%
B 16 F 10
  IC50: 0.3 µM
SW 480 [5]; Table 1b
  IC50: 2 µM
[1]
  IC50 [μg/ml] CSF-induced proliferation of bone marrow parent cells of the mouse: 0.27 µg/mL
MEXF 989
  IC70 /μg/ml: < 0.3 µg/mL
OVXF 899
  IC70 /μg/ml: 162 µg/mL
OVXF 1023
  IC70 /μg/ml: 10 µg/mL
SW 480 [2]
  IC70 /μg/ml: 11 µg/mL
LXFL 529
  IC70 /μg/ml: 2 µg/mL
LXFS 538
  IC70 /μg/ml: 0.5 µg/mL
CXF 280
  IC70 /μg/ml: 5 µg/mL
HT 29 [3]
  IC70 /μg/ml: 5 µg/mL
Bone marrow parent cells; up to 30 mg/kg, subcutaneously
  inhibition in parent cell proliferation in vivo: no inhibition
hepatoma
  % cleavage in hepatoma 1 hour: 0%
  % cleavage in hepatoma 24 hours: 0%
[4]
  Individual dose tolerated in mg/kg of mouse, i.v.: > 200 mg/kg of mouse
[6]
  % cleavage in human blood 1 hour: 0%
  % cleavage in human blood 24 hours: 0%

## batracyline
SW 480 [5]; Table 1a, glycoconjugates of batracyline
  IC50: 25 µM
HT 29 [7]
  IC50: 20 µM
[8]; Kidney
  Mean 1 hour (μg/g of organ): 26.1 μg/g of organ
[8]; Liver
  Mean 1 hour (μg/g of organ): 34.1 μg/g of organ
[9]; Kidney, after conjugate 1 i.p. 300 mg/kg
  Mean 4 hours (μg/g of organ): 27.5 μg/g of organ
[9]; [10]
  Mean 0.5 hour (μg/g of organ): 10.7 μg/g of organ
  Mean 4 hours (μg/g of organ): 0.8 μg/g of organ
[9]; Liver, after conjugate 1 i.p. 300 mg/kg
  Mean 4 hours (μg/g of organ): 22.4 μg/g of organ
[9]; [11]
  Mean 0.5 hour (μg/g of organ): 2.5 μg/g of organ
  Mean 4 hours (μg/g of organ): 3.12 μg/g of organ
